Source: ChEMBL document CHEMBL1150060, “Potent inhibitors of histamine release, two novel triterpenoids from the Okinawan marine sponge Penares incrustans” (J Nat Prod, 1992)

Legend:
[1] = test system: Mast cell; assay: Inhibition of anti-IgE-induced histamine release in rat peritoneal mast cells; type: functional, cell-based
[2] = Cytotoxicity against rat peritoneal mast cells assessed as cell viability by trypan blue exclusion assay; type: cell-based; details: read-out: Activity

SMILES	Activity [1]	IC50 [1]	viability [2]
CC(=O)O[C@H]1CC[C@]2(C)C3=C(CC[C@H]2C1(C)C)[C@]1(C(=O)O)CC[C@H]([C@H](C)CCC=C(C)C)[C@@]1(C)CC3 [ACETYLPENASTEROL]	Dose-dependent effect	10 µM	97%
CC(C)=CCC[C@@H](C)[C@H]1CC[C@@]2(C(=O)O)C3=C(CC[C@]12C)[C@@]1(C)CCC(=O)C(C)(C)[C@@H]1CC3 [PENASTERONE]	Dose-dependent effect	1.5 µM	97%
